Our source for the IC50, Kp and concentration values is US20240262819A1, “NOVEL COMPOUNDS HAVING INHIBITORY ACTIVITY AGAINST GLUCOSYLCERAMIDE SYNTHASE OR PHARMACEUTICALLY ACCEPTABLE SALT THEREOF, PROCESSES FOR PREPARING THE SAME, AND PHARMACEUTICAL COMPOSITIONS COMPRISING THE SAME” (YUHAN CORPORATION, priority 2021, published 2024).

Where two headings read alike, the source gives them in different places.

Data set [1] concerns GM1 production in Jurkat cells. The experiment in a line: cells. The data set is classed as cell-based.
Data set [2] deals with glucosylceramide synthase (GCS) (Homo sapiens (Human), UniProt Q16739). As to the kind of experiment: Evaluation of inhibitory activities against GCS (A549 cell lysate, NBD C6-ceramide, HPLC). The data set is classed as biochemical. As to the method: The inhibitory activities of the compounds of the present invention against GCS were evaluated, as follows, according to the method described in the known literature (Hayashi Y et al., A sensitive and reproducible assay to measure the activity of glucosylceramide synthase and lactosylceramide synthase using HPLC and fluorescent substrates, Analytical Biochemistry 345 (2005) 181-186). Ibiglustat, known as a GCS inhibitor, was used as a control.
glucosylceramide synthase (GCS), sequence (Q16739 whole entry): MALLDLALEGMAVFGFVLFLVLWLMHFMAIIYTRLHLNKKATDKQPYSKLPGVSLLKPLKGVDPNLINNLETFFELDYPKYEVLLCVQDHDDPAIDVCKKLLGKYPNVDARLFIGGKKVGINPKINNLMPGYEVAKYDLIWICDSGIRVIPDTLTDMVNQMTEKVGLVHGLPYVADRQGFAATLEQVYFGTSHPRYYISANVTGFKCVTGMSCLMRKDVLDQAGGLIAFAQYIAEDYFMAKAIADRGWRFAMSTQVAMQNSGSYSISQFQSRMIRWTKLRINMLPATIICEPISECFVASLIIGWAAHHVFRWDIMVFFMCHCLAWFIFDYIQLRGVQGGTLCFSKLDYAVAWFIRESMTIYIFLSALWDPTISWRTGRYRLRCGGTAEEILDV
After the cells attached to the culture dish were washed with phosphate buffered saline (PBS), the cells were scraped off with a cell scraper and then centrifuged (4000 rpm, 3 min, 4 °C) to collect the cells in a 50 ml tube. The cell pellets were suspended in a lysis buffer (50 mM HEPES, pH 7.3, containing 1× the protease/phosphatase inhibitor cocktail), lysed by sonication, and then the lysate was centrifuged (13000 rpm, 10 min, 4° C.). The obtained supernatant was used for the quantitative analysis of proteins. The amount of proteins was measured using the BCA protein assay kit, using bovine serum albumin as a standard.
Enzymatic reactions were initiated by sequentially adding the following reaction materials to a 96 deep-well plate. Thereafter, the enzymatic reactions were performed at 37° C. for 90 minutes.
The enzymatic reactions were stopped by adding 100 μl of chloroform/methanol (2:1, v/v). […] The lower layer (50 μl) was transferred to a new 96 deep-well plate and dried with a reduced concentrator.
Lipids were dissolved in 100 μl of isopropyl alcohol/n-hexane/H2O (55:44:1, v/v/v) and then transferred to a glass vial for HPLC (Agilent, 8004-HP-H/i3u). The sample (100 μl) was automatically loaded onto a normal-phase column (Intersil SIL 150A-5, 4.6×250 mm, GL Sciences, Japan) and then eluted at a flow rate of 2.0 ml/min with isopropyl alcohol/n-hexane/H2O (55:44:1, v/v/v). The fluorescence thereof was measured with a fluorescence detector (Agilent, 1260 FLD Spectra), using 470 nm and 530 nm as excitation and emission wavelengths, respectively.
Data analysis was performed by the following equations.
% Area (Sample)=Area (GlcCer)/[Area (Cer)+Area (GlcCer)]×100%
GCS activity=[Area (Sample)−Area (ibiglustat)]/[Area (DMSO)−Area (ibiglustat)]×100
The obtained % GCS activity data was analyzed with the software GraphPad Prism (Ver 5.01) to calculate the IC50 values.

Data set [3] is described as follows: Evaluation of blood-brain barrier (BBB) permeability through oral administration. Type of data set: in vivo, mice. The following applies: mouse, in vivo, mice, oral, dose 30 mg/kg, 4 hr; for Kp at 4 h: read-out: Mean brain-plasma drug ratio at 4 hr. The method, then:
The blood-brain barrier (BBB) permeability was evaluated in mice, with respect to the compounds according to the present invention and the control (ibiglustat). Each compound of the present invention and the control were suspended in 0.5% methyl cellulose containing 0.2% Tween 80 and then orally administered to mice at a dose of 10 or 30 mg/10 ml/kg. After the whole blood was collected from the heart of each mouse at the time of 4 hours after the administration, it was placed in a lithium heparin tube and immediately centrifuged to obtain the plasma. After the exsanguination was carried out through abdominal vena cava incision, the forebrain was taken by dissection of the head. Both of the forebrain and the plasma were stored in a −80° C. freezer until the analysis of drug concentrations therein. For the analysis of drug concentrations therein, the forebrain was immersed in distilled water and then homogenized with a homogenizer to obtain a homogenate. Each plasma and homogenate was treated with acetonitrile to precipitate proteins, vortexed for 15 seconds, and then centrifuged (12700 rpm, 10 min, 4° C.). The obtained supernatant was diluted with an 80% aqueous solution of acetonitrile containing 0.1% formic acid and then analyzed with an LC-MS/MS instrument. LC-MS/MS analysis was carried out with a reversed-phase column, using distilled water containing 0.1% formic acid and acetonitrile as mobile phases. Each eluted material was detected through a mass spectrometer to calculate the drug concentrations thereof. The brain-plasma drug ratio (B/P ratio) was calculated from the drug concentrations in each tissue to evaluate the blood-brain barrier (BBB) permeability.

Setting [4] is: % GCS activity, A549 cell lysate, 37° C. for 90 minutes, read-out: IC50.
Setting [5] is: read-out: Mean drug concentrations in brain tissue at 4 hr.
The mark [6] stands for this setting: read-out: Mean drug concentrations in plasma at 4 hr.

What is called IC50 is the concentration that gives 50% inhibition. Take `CCOc1cc2c(cc1-c1ccc(CC)cc1)CC(C)(C)[C@H]2NC(=O)O[C@@H]1CN2CCC1CC2` [Example 127, (S)-quinuclidin-3-yl((R)-6-ethoxy-5-(4-ethylphenyl)-2,2-dimethyl-2,3-dihydro-1H-inden-1-yl)carbamate]: the IC50 in data set [1] (Homo sapiens, Jurkat, 72 h) came out at 8.02 nM; in data set [2], 1.82 nM.
The like results for `CC(C)COc1cc(F)cc(-c2ccc3c(c2)CC(C)(C)[C@H]3NC(=O)O[C@@H]2CN3CCC2CC3)c1` [Example 50, (S)-quinuclidin-3-yl((R)-5-(3-fluoro-5-isobutoxyphenyl)-2,2-dimethyl-2,3-dihydro-1H-inden-1-yl)carbamate] were, in that order, 2.2 nM and 0.44 nM.
Consider `CCCOc1ccc(-c2ccc3c(c2)CCC(C)(C)[C@H]3NC(=O)O[C@@H]2CN3CCC2CC3)cc1` [Example 144, (S)-quinuclidin-3-yl((R)-2,2-dimethyl-6-(4-propoxyphenyl)-1,2,3,4-tetrahydronaphthalen-1-yl) carbamate], for which the IC50 in data set [1] (read-out: IC50) was found to be 2.3 nM; in data set [2] (setting [4]), 0.42 nM.
Consider `CCc1ccc(-c2ccc3c(c2)CCC(C)(C)[C@H]3NC(=O)O[C@@H]2CN3CCC2CC3)cc1` [Example 139, (S)-quinuclidin-3-yl((R)-6-(4-ethylphenyl)-2,2-dimethyl-1,2,3,4-tetrahydronaphthalen-1-yl)carbamate], for which the IC50 is 3.01 nM in data set [1] (Homo sapiens, Jurkat, 72 h) and 0.26 nM in data set [2].
In the case of `CC(C)COc1cccc(-c2ccc3c(c2)CCC(C)(C)[C@H]3NC(=O)O[C@@H]2CN3CCC2CC3)c1` [Example 163, (S)-quinuclidin-3-yl((R)-6-(3-isobutoxyphenyl)-2,2-dimethyl-1,2,3,4-tetrahydronaphthalen-1-yl)carbamate], the half-maximal inhibitory concentration (IC50) is 1.3 nM in data set [1] (Homo sapiens, Jurkat, 72 h) and 8.05 nM in data set [2].
The like results for `CCOc1ccc(-c2cc3c(cc2C)[C@H](NC(=O)O[C@@H]2CN4CCC2CC4)C(C)(C)C3)cc1` [Example 120, (S)-quinuclidin-3-yl((R)-5-(4-ethoxyphenyl)-2,2,6-trimethyl-2,3-dihydro-1H-inden-1-yl)carbamate] were, in that order, 7.66 nM and 0.31 nM.
The like results for `Cc1cc2c(cc1-c1ccc(CC(C)C)cc1)CC(C)(C)[C@H]2NC(=O)O[C@@H]1CN2CCC1CC2` [Example 119, (S)-quinuclidin-3-yl((R)-5-(4-isobutylphenyl)-2,2,6-trimethyl-2,3-dihydro-1H-inden-1-yl)carbamate] were, in that order, 4.95 nM and 0.23 nM.
The like results for `CC1(C)Cc2cc(-c3cc(F)cc(OCC(F)(F)F)c3)c(F)cc2[C@@H]1NC(=O)O[C@@H]1CN2CCC1CC2` [Example 110, (S)-quinuclidin-3-yl((R)-6-fluoro-5-(3-fluoro-5-(2,2,2-trifluoroethoxy)phenyl)-2,2-dimethyl-2,3-dihydro-1H-inden-1-yl)carbamate] were, in that order, 28 nM and 1.05 nM.
As to “(S)-quinuclidin-3-yl((R)-7-fluoro-6-(4-methoxyphenyl)-2,2-dimethyl-1,2,3,4-tetrahydronaphthalen-1-yl) carbamate [Example 175]”, the concentration for half-maximal inhibition (IC50) turned out to be 3.8 nM in data set [1] (read-out: IC50) and 0.28 nM in data set [2] (setting [4]).
`CC1(C)Cc2cc(-c3ccc(OCC4CC4)cc3Cl)c(F)cc2[C@@H]1NC(=O)O[C@@H]1CN2CCC1CC2` [Example 98, (S)-quinuclidin-3-yl((R)-5-(2-chloro-4-(cyclopropylmethoxy)phenyl)-6-fluoro-2,2-dimethyl-2,3-dihydro-1H-inden-1-yl)carbamate]: the IC50 in data set [1] (Homo sapiens, Jurkat, 72 h) was 0.2 nM; in data set [2], 0.06 nM.
The like results for `CC(C)COc1ccc(-c2ccc3c(c2)CCC(C)(C)[C@H]3NC(=O)O[C@@H]2CN3CCC2CC3)cc1` [Example 146, (S)-quinuclidin-3-yl((R)-6-(4-isobutoxyphenyl)-2,2-dimethyl-1,2,3,4-tetrahydronaphthalen-1-yl)carbamate] were, in that order, 0.68 nM and 0.17 nM.
The corresponding values for `CC(C)Oc1c(F)cc(-c2ccc3c(c2)CC(C)(C)[C@H]3NC(=O)O[C@@H]2CN3CCC2CC3)cc1F` [Example 37, (S)-quinuclidin-3-yl((R)-5-(3,5-difluoro-4-isopropoxyphenyl)-2,2-dimethyl-2,3-dihydro-1H-inden-1-yl)carbamate] are 2.2 nM and 1.94 nM.
The corresponding values for `CCc1cccc(-c2cc3c(cc2F)[C@H](NC(=O)O[C@@H]2CN4CCC2CC4)C(C)(C)CC3)c1` [Example 187, (S)-quinuclidin-3-yl((R)-6-(3-ethylphenyl)-7-fluoro-2,2-dimethyl-1,2,3,4-tetrahydronaphthalen-1-yl)carbamate] are 1.3 nM and 0.51 nM.
Turning to `CCCCc1ccc(-c2cc3c(cc2C)[C@H](NC(=O)O[C@@H]2CN4CCC2CC4)C(C)(C)C3)cc1` [Example 118, (S)-quinuclidin-3-yl((R)-5-(4-butylphenyl)-2,2,6-trimethyl-2,3-dihydro-1H-inden-1-yl)carbamate], the half-inhibitory concentration (IC50) in data set [1] (Homo sapiens, Jurkat, 72 h) is 1.55 nM; in data set [2], 0.2 nM.
Regarding `CC(C)c1ccc(-c2ccc3c(c2)CCC(C)(C)[C@H]3NC(=O)O[C@@H]2CN3CCC2CC3)cc1` [Example 141, (S)-quinuclidin-3-yl((R)-6-(4-isopropylphenyl)-2,2-dimethyl-1,2,3,4-tetrahydronaphthalen-1-yl)carbamate], the concentration for half-maximal inhibition (IC50) stood at 2.77 nM in data set [1] (Homo sapiens, Jurkat, 72 h) and 0.43 nM in data set [2].
Compound `CC(C)Oc1ccc(-c2cc3c(cc2F)[C@H](NC(=O)O[C@@H]2CN4CCC2CC4)C(C)(C)C3)cc1` [Example 68, (S)-quinuclidin-3-yl((R)-6-fluoro-5-(4-isopropoxyphenyl)-2,2-dimethyl-2,3-dihydro-1H-inden-1-yl)carbamate] returned a half-inhibitory concentration (IC50) in data set [1] (Homo sapiens, Jurkat, 72 h) of 1.54 nM. The Kp at 4 h in data set [3] turned out to be 9.77. Also, the concentration at 4 h in data set [3] (setting [5]) stood at 13500 ng/g; in data set [3] (setting [6]) it was 1420 ng/mL.
The like results for `Cc1ccc(-c2ccc3c(c2)CC(C)(C)[C@H]3NC(=O)O[C@@H]2CN3CCC2CC3)cc1Cl` [Example 45, (S)-quinuclidin-3-yl((R)-5-(3-chloro-4-methylphenyl)-2,2-dimethyl-2,3-dihydro-1H-inden-1-yl)carbamate] were, in that order, 6 nM, 9.09, 7820 ng/g and 858 ng/mL.
The like results for `COc1ccc(-c2cc3c(cc2F)[C@H](NC(=O)O[C@@H]2CN4CCC2CC4)C(C)(C)C3)c(Cl)c1` [Example 103, (S)-quinuclidin-3-yl((R)-5-(2-chloro-4-methoxyphenyl)-6-fluoro-2,2-dimethyl-2,3-dihydro-1H-inden-1-yl)carbamate] were, in that order, 5.6 nM, 2.76, 4680 ng/g and 1700 ng/mL.
The like results for `Cc1cc(-c2cc3c(cc2F)[C@H](NC(=O)O[C@@H]2CN4CCC2CC4)C(C)(C)C3)cc(C)c1OC(C)C` [Example 65, (S)-quinuclidin-3-yl((R)-6-fluoro-5-(4-isopropoxy-3,5-dimethylphenyl)-2,2-dimethyl-2,3-dihydro-1H-inden-1-yl)carbamate] were, in that order, 8.8 nM, 5.04, 4080 ng/g and 811 ng/mL.
